Source: the supplement of paper PMC10307832

Tests used:
Experiment in all cases: relative viability (nuclei count vs DMSO), 5 days (fraction); higher = more cells survive
Ricolinostat + OSI-027 = compound: O=C(CCCCCCNC(=O)c1cnc(N(c2ccccc2)c2ccccc2)nc1)NO [Ricolinostat] + COc1cccc2cc(-c3nc([C@H]4CC[C@H](C(=O)O)CC4)n4ncnc(N)c34)[nH]c12 [OSI-027] (partner 0.5 µM)
Summary of the method: (§1)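 Medians of duplicate plates are given as relative viability. That measure is the nuclei count in treated wells divided by the count in vehicle wells. Counts were taken on 4× images of lung cancer cell lines in 1536-well plates, 5 days after pin-tool dosing the day after seeding with one drug alone or a fixed anchor-drug dose plus five library-drug doses (not always all listed) in √10 steps.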

[1] = compound: O=C(CCCCCCNC(=O)c1cnc(N(c2ccccc2)c2ccccc2)nc1)NO [Ricolinostat] + C[C@@H](Oc1cc(-c2cnn(C3CCNCC3)c2)cnc1N)c1c(Cl)ccc(F)c1Cl [Crizotinib] (partner 1 µM)
Summary of the method: as §1

[2] = compound: C1=CC=C(C(=C1)C2=CC=C(C=C2)C3=CSC4=C3C(=C(C(=O)N4)C#N)O)O + O=C(CCCCCCC(=O)Nc1ccccc1)NO [Vorinostat] (partner 1 µM)
Summary of the method: as §1

Cell Line | relative viability (Ricolinostat + OSI-027; first compound 0.08 µM) | relative viability (Ricolinostat + OSI-027; first compound 0.253 µM) | relative viability (Ricolinostat + OSI-027; first compound 0.8 µM) | relative viability (Ricolinostat + OSI-027; first compound 2.53 µM) | relative viability ([1]; first compound 0.08 µM) | relative viability ([1]; first compound 0.253 µM) | relative viability ([1]; first compound 0.8 µM) | relative viability ([1]; first compound 2.53 µM) | relative viability ([2]; first compound 0.08 µM) | relative viability ([2]; first compound 0.253 µM) | relative viability ([2]; first compound 0.8 µM) | relative viability ([2]; first compound 2.53 µM) | relative viability ([2]; first compound 8 µM)
NCI-H358 | 0.584 | 0.802 | 0.734 | 0.954 | 0.581 | 0.453 | 0.421 | 0.31 | 0.641 | 0.647 | 0.666 | 0.839 | 0.484
SW 1573 | 0.588 | 0.612 | 0.647 | 0.501 | 0.761 | 0.851 | 0.784 | 0.733 | 0.701 | 0.723 | 0.716 | 0.76 | 0.59
LK-2 | 0.202 | 0.234 | 0.212 | 0.208 | – | 0.259 | 0.213 | 0.253 | 0.22 | 0.26 | 0.28 | 0.321 | 0.255
NCI-H596 | 0.801 | 0.82 | 0.845 | 0.5 | 0.967 | 0.963 | 0.977 | 0.959 | 0.588 | 0.574 | 0.589 | 0.48 | 0.527
NCI-H1650 | 0.471 | 0.586 | 0.459 | 0.361 | 1.04 | 0.926 | 0.714 | 0.784 | 0.462 | 0.546 | 0.498 | 0.531 | 0.435
NCI-H1437 | 0.729 | 0.864 | 0.774 | 0.502 | 0.825 | 0.931 | 0.918 | 0.765 | 0.788 | 0.934 | 0.889 | 0.874 | 0.603
PC-3 [JPC-3] | – | 0.768 | 0.708 | 0.491 | 1.01 | 0.902 | 0.963 | 0.829 | 0.809 | 0.909 | 0.758 | 0.658 | 0.662
NCI-H1651 | 0.607 | 0.651 | 0.603 | 0.618 | 0.843 | 0.84 | 0.88 | 0.816 | 0.509 | 0.523 | 0.583 | 0.535 | 0.51
CAL-12T | 0.412 | 0.717 | 0.617 | 0.715 | 0.623 | 0.545 | 0.571 | 0.618 | 0.65 | 0.817 | 0.884 | 0.743 | 0.643
NCI-H23 | 0.496 | 0.571 | 0.578 | 0.465 | 0.534 | 0.565 | 0.665 | 0.445 | 0.541 | 0.559 | 0.572 | 0.525 | 0.242
NCI-H2228 | 0.593 | 0.496 | 0.616 | 0.286 | 0.408 | 0.475 | 0.546 | 0.549 | 0.555 | 0.557 | 0.648 | 0.524 | 0.36
NCI-H661 | 0.501 | 0.669 | 0.712 | 0.652 | – | 0.99 | 0.973 | 0.984 | 0.803 | 0.836 | 0.772 | 0.84 | 0.6
